pIC50: −log10 of the molar value. Counter-ions that a name gives are not always drawn. Like-named read-outs stand apart in the source and are kept apart here.
What was measured:
[1] = biological target: N-terminal GST tagged recombinant human RET cytoplasmic domain (aa 658-end), wild type RET kinase (Homo sapiens (Human), UniProt P07949); assay: RET Enzyme Assay (HTRF KinEASE-TK), wild type RET; type: biochemical
[2] = biological target: Kif5b-RET fusion protein in HEK-293 cells (Homo sapiens, UniProt P07949); assay: cell-based
[3] = biological target: human KDR protein in HEK-293 cells (Homo sapiens (Human), UniProt P35968); assay: KDR Cell Assay (phospho-KDR in HEK-293 cells expressing inducible KDR); type: cell-based; conditions: pKDR Cell HEK 10% FBS IC50, HEK-293 cells expressing inducible KDR, VEGF stimulated
How it was run: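 HEK-293 cells with inducible human KDR were treated with compound for 1 h in DMEM (0.25% DMSO final), then lysed. Phospho-KDR was quantified by Meso Scale immunoassay, expressed as percent of control, and IC50 taken where a 4-parameter logistic fit crossed 50 POC.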

[4] = HEK-293 cells expressing Kif5b-RET, phospho-RET(Tyr1062), read-out: KIF5B-RET pTYR1062 Cell IC50
[5] = HEK-293 cells expressing Kif5b-RET, read-out: KIF5B-RET pTYR1062 Cell IC50

Chain of human KDR protein in HEK-293 cells (P35968 20-1356): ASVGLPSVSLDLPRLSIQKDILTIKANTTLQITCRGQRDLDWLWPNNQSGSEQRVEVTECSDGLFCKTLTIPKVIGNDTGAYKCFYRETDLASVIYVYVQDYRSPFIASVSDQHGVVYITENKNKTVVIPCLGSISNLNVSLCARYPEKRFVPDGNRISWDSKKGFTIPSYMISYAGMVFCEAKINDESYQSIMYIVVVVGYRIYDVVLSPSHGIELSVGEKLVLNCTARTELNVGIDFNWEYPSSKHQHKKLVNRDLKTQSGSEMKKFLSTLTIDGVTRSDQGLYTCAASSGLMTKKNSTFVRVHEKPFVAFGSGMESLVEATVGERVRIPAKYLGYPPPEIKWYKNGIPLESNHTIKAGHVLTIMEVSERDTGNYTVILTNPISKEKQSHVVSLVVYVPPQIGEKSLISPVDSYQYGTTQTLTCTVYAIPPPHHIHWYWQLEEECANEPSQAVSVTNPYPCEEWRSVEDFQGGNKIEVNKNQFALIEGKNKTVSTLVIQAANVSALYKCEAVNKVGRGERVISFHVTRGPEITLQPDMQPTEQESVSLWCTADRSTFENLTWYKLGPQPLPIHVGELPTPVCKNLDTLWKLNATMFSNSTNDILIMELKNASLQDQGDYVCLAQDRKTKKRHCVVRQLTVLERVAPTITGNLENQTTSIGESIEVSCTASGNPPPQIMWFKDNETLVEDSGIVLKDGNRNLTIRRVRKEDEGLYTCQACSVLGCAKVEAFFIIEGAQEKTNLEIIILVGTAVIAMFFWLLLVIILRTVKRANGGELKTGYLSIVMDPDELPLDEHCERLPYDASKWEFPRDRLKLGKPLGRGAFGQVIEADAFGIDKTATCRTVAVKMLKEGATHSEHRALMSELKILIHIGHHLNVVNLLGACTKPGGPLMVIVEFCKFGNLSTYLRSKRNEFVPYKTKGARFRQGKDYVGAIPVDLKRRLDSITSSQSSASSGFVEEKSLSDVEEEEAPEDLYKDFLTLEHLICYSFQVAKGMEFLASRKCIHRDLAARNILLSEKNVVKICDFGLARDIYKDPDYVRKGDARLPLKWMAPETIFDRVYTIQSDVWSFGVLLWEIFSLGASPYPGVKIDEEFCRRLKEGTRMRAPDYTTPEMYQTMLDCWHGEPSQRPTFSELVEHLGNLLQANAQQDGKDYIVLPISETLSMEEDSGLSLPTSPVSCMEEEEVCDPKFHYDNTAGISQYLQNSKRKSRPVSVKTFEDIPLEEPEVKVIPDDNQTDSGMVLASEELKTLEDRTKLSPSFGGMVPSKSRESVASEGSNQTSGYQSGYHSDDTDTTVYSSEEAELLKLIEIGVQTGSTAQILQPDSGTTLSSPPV
Chain of Kif5b-RET fusion protein in HEK-293 cells (P07949 29-1114 limits assumed): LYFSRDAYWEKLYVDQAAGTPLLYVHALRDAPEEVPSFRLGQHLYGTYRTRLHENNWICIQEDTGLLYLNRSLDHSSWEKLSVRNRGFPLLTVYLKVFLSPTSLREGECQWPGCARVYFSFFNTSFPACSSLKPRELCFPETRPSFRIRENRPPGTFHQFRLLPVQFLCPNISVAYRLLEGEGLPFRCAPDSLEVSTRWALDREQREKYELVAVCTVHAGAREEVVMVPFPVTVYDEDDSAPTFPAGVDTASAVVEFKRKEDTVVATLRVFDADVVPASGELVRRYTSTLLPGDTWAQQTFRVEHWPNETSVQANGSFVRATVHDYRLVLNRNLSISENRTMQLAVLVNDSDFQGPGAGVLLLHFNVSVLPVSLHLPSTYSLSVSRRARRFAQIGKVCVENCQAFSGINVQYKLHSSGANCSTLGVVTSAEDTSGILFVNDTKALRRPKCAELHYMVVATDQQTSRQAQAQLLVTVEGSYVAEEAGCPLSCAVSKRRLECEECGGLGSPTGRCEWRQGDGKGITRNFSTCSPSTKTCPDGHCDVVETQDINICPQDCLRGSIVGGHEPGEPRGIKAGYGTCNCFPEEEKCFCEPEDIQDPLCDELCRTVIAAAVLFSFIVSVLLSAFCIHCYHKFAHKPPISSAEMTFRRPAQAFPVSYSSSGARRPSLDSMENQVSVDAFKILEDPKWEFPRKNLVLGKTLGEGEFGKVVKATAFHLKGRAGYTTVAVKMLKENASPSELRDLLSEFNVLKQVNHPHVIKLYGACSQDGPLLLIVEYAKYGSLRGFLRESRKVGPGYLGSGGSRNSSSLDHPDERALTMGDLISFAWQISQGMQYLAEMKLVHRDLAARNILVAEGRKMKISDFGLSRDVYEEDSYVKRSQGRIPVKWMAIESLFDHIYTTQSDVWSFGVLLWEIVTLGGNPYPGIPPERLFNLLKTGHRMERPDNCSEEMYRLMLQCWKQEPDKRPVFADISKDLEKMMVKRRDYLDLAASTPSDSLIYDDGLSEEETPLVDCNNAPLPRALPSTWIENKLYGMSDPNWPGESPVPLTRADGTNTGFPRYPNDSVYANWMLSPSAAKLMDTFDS
Chain of N-terminal GST tagged recombinant human RET cytoplasmic domain (aa 658-end), wild type RET kinase (P07949 658-1114): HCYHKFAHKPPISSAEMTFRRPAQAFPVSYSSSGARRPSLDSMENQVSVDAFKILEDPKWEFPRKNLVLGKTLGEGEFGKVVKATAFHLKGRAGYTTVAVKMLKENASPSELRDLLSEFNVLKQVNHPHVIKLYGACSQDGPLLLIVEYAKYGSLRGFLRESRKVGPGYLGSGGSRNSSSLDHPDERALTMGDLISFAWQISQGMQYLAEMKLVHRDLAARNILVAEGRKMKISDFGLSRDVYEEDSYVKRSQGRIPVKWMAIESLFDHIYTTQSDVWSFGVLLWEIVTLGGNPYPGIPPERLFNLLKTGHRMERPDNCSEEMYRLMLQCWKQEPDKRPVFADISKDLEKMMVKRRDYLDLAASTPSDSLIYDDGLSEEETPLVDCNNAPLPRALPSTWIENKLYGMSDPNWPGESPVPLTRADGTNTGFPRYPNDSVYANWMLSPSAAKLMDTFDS

| Structure (SMILES) | pIC50 ([1]; wild type RET, 1 mM ATP) | pIC50 [2] | pIC50 [3] | pIC50 [2, 4] | pIC50 ([3]; 10% FBS) | pIC50 [2, 5] | pIC50 [1] | pIC50 ([2]; read-out: KIF5B-RET pTYR1062 Cell IC50) |
| --- | --- | --- | --- | --- | --- | --- | --- | --- |
| CCn1cc(-c2cc(-c3ccc(N4CCN(Cc5ccccc5)CC4)nc3)c3c(C#N)cnn3c2)c(C)n1 [Example 609, 4-(6-(4-benzylpiperazin-1-yl)pyridin-3-yl)-6-(1-ethyl-3-methyl-1H-pyrazol-4-yl)pyrazolo[1,5-a]pyridine-3-carbonitrile] | 7.78 | 7.50 | 5.70 | – | – | – | – | – |
| CC(C)NC(=O)NC1CCN(c2ccc(-c3cc(-c4cnn(C)c4)cn4ncc(C#N)c34)cn2)CC1 [Example 187, 1-(1-(5-(3-cyano-6-(1-methyl-1H-pyrazol-4-yl)pyrazolo[1,5-a]pyridin-4-yl)pyridin-2-yl)piperidin-4-yl)-3-isopropylurea] | 7.80 | – | – | 7.69 | 6.06 | – | – | – |
| COc1ncccc1CN1CCN(c2ccc(-c3cc(-c4cnn(C)c4)cn4ncc(C#N)c34)cn2)CC1 [Example 452, 4-(6-(4-((2-methoxypyridin-3-yl)methyl)piperazin-1-yl)pyridin-3-yl)-6-(1-methyl-1H-pyrazol-4-yl)pyrazolo[1,5-a]pyridine-3-carbonitrile] | 8.00 | – | 6.07 | – | – | 7.92 | – | – |
| Cn1cc(-c2cc(-c3ccc(N4CCN(CCOC(F)(F)F)CC4)nc3)c3c(C#N)cnn3c2)cn1 [Example 398, 6-(1-methyl-1H-pyrazol-4-yl)-4-(6-(4-(2-(trifluoromethoxy)ethyl)piperazin-1-yl)pyridin-3-yl)pyrazolo[1,5-a]pyridine-3-carbonitrile] | 7.95 | – | 5.89 | – | – | 7.73 | – | – |
| COc1cccnc1CN1CCN(c2ccc(-c3cc(-c4cnn(C)c4)cn4ncc(C#N)c34)cn2)CC1 [Example 463, 4-(6-(4-((3-methoxypyridin-2-yl)methyl)piperazin-1-yl)pyridin-3-yl)-6-(1-methyl-1H-pyrazol-4-yl)pyrazolo[1,5-a]pyridine-3-carbonitrile formate] | 8.01 | 7.75 | 6.17 | – | – | – | – | – |
| Cn1cc(-c2cc(-c3ccc(N4CCN(CC(O)C(C)(C)C)CC4)nc3)c3c(C#N)cnn3c2)cn1 (stereo not drawn) [Example 148, 4-(6-(4-(2-hydroxy-3,3-dimethylbutyl)piperazin-1-yl)pyridin-3-yl)-6-(1-methyl-1H-pyrazol-4-yl)pyrazolo[1,5-a]pyridine-3-carbonitrile] | 7.70 | – | – | 7.33 | 5.97 | – | – | – |
| COc1ccc(CN2CCN(c3ccc(-c4cc(-c5cnn(C[C@@H](C)O)c5)cn5ncc(C#N)c45)cn3)CC2)cn1 [Example 700, (R)-6-(1-(2-hydroxypropyl)-1H-pyrazol-4-yl)-4-(6-(4-((6-methoxypyridin-3-yl)methyl)piperazin-1-yl)pyridin-3-yl)pyrazolo[5-a]pyridine-3-carbonitrile] | 7.77 | – | 6.46 | – | – | 8.28 | – | – |
| COCC(C)NC(=O)C1(C)CCN(c2ccc(-c3cc(-c4cnn(C)c4)cn4ncc(C#N)c34)cn2)CC1 (stereo not drawn) [Example 252, 1-(5-(3-cyano-6-(1-methyl-1H-pyrazol-4-yl)pyrazolo[1,5-a]pyridin-4-yl)pyridin-2-yl)-N-(1-methoxypropan-2-yl)-4-methylpiperidine-4-carboxamide] | 7.94 | – | – | 8.32 | 6.18 | – | – | – |
| Cn1cc(-c2cc(-c3ccc(N4CCN(C(=O)C(C)(C)O)CC4)nc3)c3c(C#N)cnn3c2)cn1 [Example 31, 4-(6-(4-(2-hydroxy-2-methylpropanoyl)piperazin-1-yl)pyridin-3-yl)-6-(1-methyl-1H-pyrazol-4-yl)pyrazolo[1,5-a]pyridine-3-carbonitrile] | 7.44 | – | – | 7.12 | 5.59 | – | – | – |
| CN1CCN(c2ccc(-c3cc(-c4cnn(C)c4)cn4ncc(Cl)c34)cn2)CC1 [Example 333, 3-chloro-6-(1-methyl-1H-pyrazol-4-yl)-4-(6-(4-methylpiperazin-1-yl)pyridin-3-yl)pyrazolo[1,5-a]pyridine] | 7.20 | – | – | 6.81 | 5.62 | – | – | – |
| C[C@@H](O)C(=O)NC1CCN(c2ccc(-c3cc(-c4cnn(C)c4)cn4ncc(C#N)c34)cn2)CC1 [Example 181, (R)-N-(1-(5-(3-cyano-6-(1-methyl-1H-pyrazol-4-yl)pyrazolo[1,5-a]pyridin-4-yl)pyridin-2-yl)piperidin-4-yl)-2-hydroxypropanamide] | 7.98 | – | – | 6.96 | 5.92 | – | – | – |
| Cc1cccc(CN2CCN(c3ccc(-c4cc(-c5cnn(C)c5)cn5ncc(C#N)c45)cn3)CC2)n1 [Example 433, 6-(1-methyl-1H-pyrazol-4-yl)-4-(6-(4-((6-methylpyridin-2-yl)methyl)piperazin-l-yl)pyridine-3-yl)pyrazolo[1,5-a]pyridine-3-carbonitrile] | 8.01 | 8.22 | 5.97 | – | – | – | – | – |
| COC(CNC(=O)C1CCN(c2ccc(-c3cc(-c4cnn(C)c4)cn4ncc(C#N)c34)cn2)CC1)C(C)C (stereo not drawn) [Example 236, 1-(5-(3-cyano-6-(1-methyl-1H-pyrazol-4-yl)pyrazolo[1,5-a]pyridin-4-yl)pyridin-2-yl)-N-(2-methoxy-3-methylbutyl)piperidine-4-carboxamide] | 8.40 | – | – | 8.49 | 6.32 | – | – | – |
| COC(C)(C)CN1CCN(c2ccc(-c3cc(-c4cnn(C)c4)cn4ncc(C#N)c34)cn2)CC1 [Example 414, 4-(6-(4-(2-methoxy-2-methylpropyl)piperazin-1-yl)pyridin-3-yl)-6-(1-methyl-1H-pyrazol-4-yl)pyrazolo[1,5-a]pyridine-3-carbonitrile] | 7.38 | – | 5.64 | – | – | 7.38 | – | – |
| Cn1cc(-c2cc(-c3ccc(N4CCC(C(=O)NCCC(F)(F)F)CC4)nc3)c3c(C#N)cnn3c2)cn1 [Example 242, 1-(5-(3-cyano-6-(1-methyl-1H-pyrazol-4-yl)pyrazolo[1,5-a]pyridin-4-yl)pyridin-2-yl)-N-(3,3,3-trifluoropropyl)piperidine-4-carboxamide] | 8.35 | – | – | 8.20 | 6.65 | – | – | – |
| Cn1cc(-c2cc(-c3ccc(N4CCC(O)(C(F)(F)F)CC4)nc3)c3c(C#N)cnn3c2)cn1 [Example 510, 4-(6-(4-hydroxy-4-(trifluoromethyl)piperidin-1-yl)pyridin-3-yl)-6-(1-methyl-1H-pyrazol-4-yl)pyrazolo[1,5-a]pyridine-3-carbonitrile 2,2,2-trifluoroacetate] | – | – | 6.49 | – | – | 8.02 | 8.17 | – |
| Cn1cc(-c2cc(-c3ccc(N4CCN(CCNC(=O)OC(C)(C)C)CC4)nc3)c3c(C#N)cnn3c2)cn1 [Example 506, tert-butyl (2-(4-(5-(3-cyano-6-(1-methyl-1H-pyrazol-4-yl)pyrazolo[1,5-a]pyridin-4-yl)pyridin-2-yl)piperazin-1-yl)ethyl)carbamate] | 7.50 | 8.19 | 6.67 | – | – | – | – | – |
| CCC1(C(=O)NC(C)C)CCN(c2ccc(-c3cc(-c4cnn(C)c4C)cn4ncc(C#N)c34)cn2)CC1 [Example 597, 1-(5-(3-cyano-6-(1,5-dimethyl-1H-pyrazol-4-yl)pyrazolo[1,5-a]pyridin-4-yl)pyridin-2-yl)-4-ethyl-N-isopropylpiperidine-4-carboxamide] | 7.47 | – | 6.08 | – | – | 7.40 | – | – |
| CC(=O)N1CCN(c2ccc(-c3cc(-c4cnn(C)c4)cn4ncc(Cl)c34)cn2)CC1 [Example 330, 1-(4-(5-(3-chloro-6-(1-methyl-1H-pyrazol-4-yl)pyrazolo[1,5-a]pyridin-4-yl)pyridin-2-yl)piperazin-1-yl)ethanone] | 7.42 | – | – | 7.08 | 6.25 | – | – | – |
| COCCN(C)C(=O)N1CCN(c2ccc(-c3cc(-c4cnn(C)c4)cn4ncc(C#N)c34)cn2)CC1 [Example 130, 4-(5-(3-cyano-6-(1-methyl-1H-pyrazol-4-yl)pyrazolo[1,5-a]pyridin-4-yl)pyridin-2-yl)-N-(2-methoxyethyl)-N-methylpiperazine-1-carboxamide 2,2,2-trifluoroacetate] | 7.68 | – | – | – | 5.65 | – | – | 7.48 |
| Cn1cc(-c2cc(-c3ccc(N4CCC(O)CC4)nc3)c3c(C#N)cnn3c2)cn1 [Example 196, 4-(6-(4-hydroxypiperidin-1-yl)pyridin-3-yl)-6-(1-methyl-1H-pyrazol-4-yl)pyrazolo[1,5-a]pyridine-3-carbonitrile] | 7.96 | – | – | 7.34 | 6.20 | – | – | – |
| COCC(C)(C)C(=O)N1CCN(c2ccc(-c3cc(-c4cnn(C)c4)cn4ncc(C#N)c34)cn2)CC1 [Example 352, 4-(6-(4-(3-methoxy-2,2-dimethylpropanoyl)piperazin-1-yl)pyridin-3-yl)-6-(1-methyl-1H-pyrazol-4-yl)pyrazolo[1,5-a]pyridine-3-carbonitrile] | 7.86 | – | – | 7.86 | 5.66 | – | – | – |
| CC(C)NC(=O)C1CCN(c2ccc(-c3cc(-c4cnn(C)c4)cn4ncc(C#N)c34)cn2)CC1 [Example 246, 1-(5-(3-cyano-6-(1-methyl-1H-pyrazol-4-yl)pyrazolo[1,5-a]pyridin-4-yl)pyridin-2-yl)-N-isopropylpiperidine-4-carboxamide] | 7.92 | – | – | 7.87 | 6.02 | – | – | – |
| CC(C)NS(=O)(=O)C1CCN(c2ccc(-c3cc(-c4cnn(C)c4)cn4ncc(C#N)c34)cn2)CC1 [Example 569, 1-(5-(3-cyano-6-(1-methyl-1H-pyrazol-4-yl)pyrazolo[1,5-a]pyridin-4-yl)pyridin-2-yl)-N-isopropylpiperidine-4-sulfonamide] | 8.21 | – | 8.66 | – | – | 8.55 | – | – |
